# Test results taken from patent US7074789B2, “Kinase inhibitors” (Amgen Inc., priority 1999, dated 2006).
# Legend:
# Type in all cases: biochemical
# [1] = biological target: T1, ErbB4 (Homo sapiens, UniProt Q15303); assay: Kinase inhibition assay (33P transfer), ErbB4; conditions: read-out: ErbB4-1
# T1 construct: Kinases are expressed as either kinase domains or full length constructs; made in house
# [2] = biological target: T2, AKT (Homo sapiens, UniProt Q9Y243); assay: Kinase inhibition assay (33P transfer), AKT; conditions: Table 2, kinase inhibition class; read-out: AKT3-1
# T2 construct: Kinases are expressed as either kinase domains or full length constructs; made in house
# T2 sequence (Q9Y243 whole entry, the tested form may be a part): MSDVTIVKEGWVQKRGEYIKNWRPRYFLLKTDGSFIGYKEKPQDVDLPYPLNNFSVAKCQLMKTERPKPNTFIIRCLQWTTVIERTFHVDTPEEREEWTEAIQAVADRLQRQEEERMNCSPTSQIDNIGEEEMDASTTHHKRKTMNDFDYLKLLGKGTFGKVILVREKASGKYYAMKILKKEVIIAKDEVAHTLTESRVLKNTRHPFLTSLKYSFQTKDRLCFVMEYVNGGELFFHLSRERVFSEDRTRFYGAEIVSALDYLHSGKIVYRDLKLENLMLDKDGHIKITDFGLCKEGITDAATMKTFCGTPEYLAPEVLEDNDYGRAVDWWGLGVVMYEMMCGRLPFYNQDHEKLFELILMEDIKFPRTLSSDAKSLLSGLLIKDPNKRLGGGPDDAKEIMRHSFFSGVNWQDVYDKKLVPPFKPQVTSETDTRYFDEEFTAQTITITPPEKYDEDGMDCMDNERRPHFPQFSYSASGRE
# Outline: (§1)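 33P-ATP transfer to coated synthetic polymer substrates; acid wash (0.5% H3PO4), scintillant, liquid scintillation count. Enzymes: His- or GST-fusion kinases from E. coli or High Five insect cells.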
# [3] = biological target: T3, EPHB4 (Homo sapiens, UniProt P54760); assay: Kinase inhibition assay (33P transfer), EPHB4; conditions: read-out: EPHB4-1
# T3 construct: Kinases are expressed as either kinase domains or full length constructs; made in house
# T3 sequence (P54760 16-987): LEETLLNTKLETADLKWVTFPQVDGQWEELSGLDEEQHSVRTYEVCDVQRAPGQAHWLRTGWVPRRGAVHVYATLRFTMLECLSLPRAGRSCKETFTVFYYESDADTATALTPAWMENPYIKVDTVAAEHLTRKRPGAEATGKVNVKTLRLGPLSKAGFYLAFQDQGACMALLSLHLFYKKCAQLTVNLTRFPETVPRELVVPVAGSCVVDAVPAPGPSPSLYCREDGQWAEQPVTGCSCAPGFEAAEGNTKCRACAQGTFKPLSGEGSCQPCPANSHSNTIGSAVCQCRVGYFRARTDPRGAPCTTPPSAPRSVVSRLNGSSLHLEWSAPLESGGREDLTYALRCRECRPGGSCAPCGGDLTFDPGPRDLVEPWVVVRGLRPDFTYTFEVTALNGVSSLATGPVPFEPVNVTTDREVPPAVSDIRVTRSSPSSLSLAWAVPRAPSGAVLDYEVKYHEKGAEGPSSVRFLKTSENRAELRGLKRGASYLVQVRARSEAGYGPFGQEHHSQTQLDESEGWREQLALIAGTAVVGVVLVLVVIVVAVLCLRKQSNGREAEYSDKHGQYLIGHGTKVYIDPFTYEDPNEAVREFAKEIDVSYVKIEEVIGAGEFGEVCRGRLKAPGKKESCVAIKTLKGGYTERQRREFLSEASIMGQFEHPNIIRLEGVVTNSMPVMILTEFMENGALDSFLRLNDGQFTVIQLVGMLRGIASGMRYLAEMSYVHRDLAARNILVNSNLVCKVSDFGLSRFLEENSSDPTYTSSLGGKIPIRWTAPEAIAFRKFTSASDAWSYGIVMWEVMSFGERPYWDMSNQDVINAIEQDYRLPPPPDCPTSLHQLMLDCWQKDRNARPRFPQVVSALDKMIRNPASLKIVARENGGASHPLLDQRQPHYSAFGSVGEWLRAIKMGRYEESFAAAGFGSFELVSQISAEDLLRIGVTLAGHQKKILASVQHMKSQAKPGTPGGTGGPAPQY
# [4] = biological target: T4, Src (Homo sapiens, UniProt P12931); assay: Kinase inhibition assay (33P transfer), Src; conditions: Table 6, Src-1 kinase inhibition class
# T4 construct: Kinases are expressed as either kinase domains or full length constructs; made in house
# T4 sequence (P12931 whole entry, species assumed, the tested form may be a part): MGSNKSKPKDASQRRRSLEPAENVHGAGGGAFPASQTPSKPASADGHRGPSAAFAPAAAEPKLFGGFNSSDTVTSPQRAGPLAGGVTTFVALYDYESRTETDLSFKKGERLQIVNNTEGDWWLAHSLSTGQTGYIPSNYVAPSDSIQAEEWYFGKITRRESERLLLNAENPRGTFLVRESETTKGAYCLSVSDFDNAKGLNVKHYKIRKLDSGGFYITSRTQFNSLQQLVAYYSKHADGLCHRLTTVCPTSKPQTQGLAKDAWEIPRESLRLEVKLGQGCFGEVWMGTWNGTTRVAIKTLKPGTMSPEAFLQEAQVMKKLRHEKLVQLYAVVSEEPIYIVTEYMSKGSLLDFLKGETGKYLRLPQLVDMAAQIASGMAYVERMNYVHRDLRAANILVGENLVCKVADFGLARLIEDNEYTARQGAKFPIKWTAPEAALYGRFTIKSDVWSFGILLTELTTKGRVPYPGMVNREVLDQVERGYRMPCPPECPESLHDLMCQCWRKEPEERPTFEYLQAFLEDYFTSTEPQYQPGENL
# Outline: (§2)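 Using immobilised substrate copolymers (poly(Glu,Tyr) 4:1; poly(Arg,Ser) 3:1) and [33P]ATP, purified fusion kinases were allowed to react; plates were then rinsed in 0.5% phosphoric acid and counted in a scintillation detector. Half-maximal inhibition of label transfer defines IC50.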
# [5] = biological target: T5, Zap-70 (Homo sapiens, UniProt P43403); assay: Kinase inhibition assay (33P transfer), Zap-70; conditions: Table 3; read-out: Zap-1
# T5 construct: Kinases are expressed as either kinase domains or full length constructs; made in house
# T5 sequence (P43403 1-619): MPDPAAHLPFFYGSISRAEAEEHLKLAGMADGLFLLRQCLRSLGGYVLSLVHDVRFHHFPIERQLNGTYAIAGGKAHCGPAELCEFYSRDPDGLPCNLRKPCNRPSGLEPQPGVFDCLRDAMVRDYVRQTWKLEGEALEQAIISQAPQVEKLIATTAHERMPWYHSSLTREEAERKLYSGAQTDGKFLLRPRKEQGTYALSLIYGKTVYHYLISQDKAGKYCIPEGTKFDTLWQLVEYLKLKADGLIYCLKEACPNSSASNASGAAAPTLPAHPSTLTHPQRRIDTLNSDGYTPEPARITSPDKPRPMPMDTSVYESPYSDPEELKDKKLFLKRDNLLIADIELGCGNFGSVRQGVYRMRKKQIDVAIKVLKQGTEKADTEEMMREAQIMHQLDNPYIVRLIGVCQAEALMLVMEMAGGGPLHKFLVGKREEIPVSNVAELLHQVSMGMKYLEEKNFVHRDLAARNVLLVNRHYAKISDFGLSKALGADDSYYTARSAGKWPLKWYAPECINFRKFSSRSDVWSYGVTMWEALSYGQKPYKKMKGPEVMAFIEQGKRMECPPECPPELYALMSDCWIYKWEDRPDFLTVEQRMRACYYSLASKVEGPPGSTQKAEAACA
# Outline: as §1
# [6] = biological target: T6, EGFR (Homo sapiens, UniProt P00533); assay: Kinase inhibition assay (33P transfer), EGFR; conditions: Table 2, kinase inhibition class; read-out: EGFR-1
# T6 construct: Kinases are expressed as either kinase domains or full length constructs; made in house
# T6 sequence (P00533 25-1210, species assumed): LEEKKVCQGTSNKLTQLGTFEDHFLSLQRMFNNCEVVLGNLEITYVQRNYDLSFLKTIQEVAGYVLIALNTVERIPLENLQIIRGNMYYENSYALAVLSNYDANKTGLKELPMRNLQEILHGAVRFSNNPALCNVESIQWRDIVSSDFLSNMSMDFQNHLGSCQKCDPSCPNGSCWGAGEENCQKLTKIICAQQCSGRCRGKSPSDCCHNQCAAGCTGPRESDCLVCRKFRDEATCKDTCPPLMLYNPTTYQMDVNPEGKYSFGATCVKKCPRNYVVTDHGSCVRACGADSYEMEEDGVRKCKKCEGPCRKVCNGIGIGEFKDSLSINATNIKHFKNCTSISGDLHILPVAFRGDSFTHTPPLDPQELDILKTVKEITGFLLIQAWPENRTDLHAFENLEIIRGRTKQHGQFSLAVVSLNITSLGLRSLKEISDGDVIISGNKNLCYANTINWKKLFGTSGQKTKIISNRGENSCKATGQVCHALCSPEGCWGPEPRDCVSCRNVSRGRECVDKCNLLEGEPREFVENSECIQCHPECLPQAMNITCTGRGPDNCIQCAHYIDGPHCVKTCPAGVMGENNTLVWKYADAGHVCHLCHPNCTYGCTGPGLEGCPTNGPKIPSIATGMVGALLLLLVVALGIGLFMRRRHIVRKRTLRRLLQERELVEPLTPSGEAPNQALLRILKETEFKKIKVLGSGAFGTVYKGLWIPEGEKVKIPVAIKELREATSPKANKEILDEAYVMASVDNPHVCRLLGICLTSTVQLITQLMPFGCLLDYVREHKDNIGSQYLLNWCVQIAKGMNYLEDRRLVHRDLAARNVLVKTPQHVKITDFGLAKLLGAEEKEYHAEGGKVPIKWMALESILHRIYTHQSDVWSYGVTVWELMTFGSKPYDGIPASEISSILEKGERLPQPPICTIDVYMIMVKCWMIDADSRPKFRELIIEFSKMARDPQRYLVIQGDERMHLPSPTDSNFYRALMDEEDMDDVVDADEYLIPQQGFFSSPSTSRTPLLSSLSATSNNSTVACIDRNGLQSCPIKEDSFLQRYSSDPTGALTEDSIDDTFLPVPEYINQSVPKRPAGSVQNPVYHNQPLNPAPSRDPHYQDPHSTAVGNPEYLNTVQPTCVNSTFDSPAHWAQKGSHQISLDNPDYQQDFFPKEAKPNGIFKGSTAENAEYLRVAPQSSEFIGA
# Outline: as §2
# [7] = biological target: T7, IGFR-1 (Homo sapiens, UniProt P08069); assay: Kinase inhibition assay (33P transfer), IGFR-1; conditions: Table 2, kinase inhibition class
# T7 construct: Kinases are expressed as either kinase domains or full length constructs; made in house
# T7 sequence (P08069 31-1367): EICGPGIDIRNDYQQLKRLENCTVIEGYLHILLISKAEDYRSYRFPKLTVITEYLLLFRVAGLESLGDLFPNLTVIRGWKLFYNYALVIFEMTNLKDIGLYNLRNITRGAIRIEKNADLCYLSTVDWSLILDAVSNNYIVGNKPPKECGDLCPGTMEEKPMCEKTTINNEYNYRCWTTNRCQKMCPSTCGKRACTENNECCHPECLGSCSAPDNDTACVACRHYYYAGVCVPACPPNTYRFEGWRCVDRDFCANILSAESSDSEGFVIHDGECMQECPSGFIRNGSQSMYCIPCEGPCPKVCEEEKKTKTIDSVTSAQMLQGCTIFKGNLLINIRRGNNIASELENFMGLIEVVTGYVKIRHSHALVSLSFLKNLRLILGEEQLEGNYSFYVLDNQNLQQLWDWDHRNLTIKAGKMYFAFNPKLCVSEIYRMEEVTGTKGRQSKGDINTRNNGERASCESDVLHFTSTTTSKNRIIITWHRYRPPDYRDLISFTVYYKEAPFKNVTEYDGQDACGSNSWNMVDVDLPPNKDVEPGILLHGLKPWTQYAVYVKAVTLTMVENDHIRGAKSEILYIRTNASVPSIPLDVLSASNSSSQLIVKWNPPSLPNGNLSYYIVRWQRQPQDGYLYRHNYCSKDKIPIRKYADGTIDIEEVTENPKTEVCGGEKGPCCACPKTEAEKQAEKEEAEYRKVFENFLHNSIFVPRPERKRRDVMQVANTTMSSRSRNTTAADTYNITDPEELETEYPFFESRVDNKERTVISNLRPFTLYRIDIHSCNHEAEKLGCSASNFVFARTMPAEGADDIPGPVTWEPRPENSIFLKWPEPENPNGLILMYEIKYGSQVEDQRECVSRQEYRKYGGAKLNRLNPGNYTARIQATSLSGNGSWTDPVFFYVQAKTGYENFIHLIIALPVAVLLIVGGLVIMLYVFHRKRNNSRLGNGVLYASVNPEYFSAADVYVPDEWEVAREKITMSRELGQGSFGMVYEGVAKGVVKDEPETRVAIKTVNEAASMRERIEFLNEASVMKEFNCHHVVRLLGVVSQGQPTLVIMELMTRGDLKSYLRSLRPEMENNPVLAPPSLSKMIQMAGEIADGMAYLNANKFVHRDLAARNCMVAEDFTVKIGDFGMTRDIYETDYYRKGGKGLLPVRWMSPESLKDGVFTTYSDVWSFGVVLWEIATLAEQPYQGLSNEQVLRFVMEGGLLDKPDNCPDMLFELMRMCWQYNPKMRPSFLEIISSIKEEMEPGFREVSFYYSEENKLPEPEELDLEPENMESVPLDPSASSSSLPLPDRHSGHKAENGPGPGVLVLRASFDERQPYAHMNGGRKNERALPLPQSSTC
# [8] = biological target: T8, Lck (Homo sapiens, UniProt P06239); assay: Kinase inhibition assay (33P transfer), Lck; conditions: Table 3; read-out: Lck-1
# T8 construct: Kinases are expressed as either kinase domains or full length constructs; made in house
# T8 sequence (P06239 whole entry, species assumed, the tested form may be a part): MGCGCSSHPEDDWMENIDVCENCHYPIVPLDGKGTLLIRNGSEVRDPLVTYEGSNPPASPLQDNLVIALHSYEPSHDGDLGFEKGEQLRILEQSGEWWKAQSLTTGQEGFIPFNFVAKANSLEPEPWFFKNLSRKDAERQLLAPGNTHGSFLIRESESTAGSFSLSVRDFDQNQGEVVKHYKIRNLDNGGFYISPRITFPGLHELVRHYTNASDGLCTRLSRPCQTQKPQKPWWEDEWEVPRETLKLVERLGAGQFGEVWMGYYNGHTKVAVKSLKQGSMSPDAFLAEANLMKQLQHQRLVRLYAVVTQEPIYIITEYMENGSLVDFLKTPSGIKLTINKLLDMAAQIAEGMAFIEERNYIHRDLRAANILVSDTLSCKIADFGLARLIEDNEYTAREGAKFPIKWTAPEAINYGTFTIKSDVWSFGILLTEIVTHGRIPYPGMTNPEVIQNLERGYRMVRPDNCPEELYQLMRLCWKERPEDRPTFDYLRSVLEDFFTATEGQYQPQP
# Outline: as §1
IC50 [1] [µM],IC50 [2] [µM],IC50 [3] [µM],IC50 [4] [µM],IC50 [5] [µM],IC50 [6] [µM],IC50 [7] [µM],IC50 [8] [µM],Structure (SMILES)
0.968 to 5.81,> 10.9,> 10.9,0.968 to 5.81,> 10.9,> 10.9,< 0.968,0.968 to 5.81,COc1cc(Nc2ncnc(Nc3cc(OC)c(OC)c(OC)c3)n2)cc(OC)c1 [Compound 86]
> 10.4,> 10.4,5.54 to 8.07,0.923 to 5.54,> 10.4,8.07 to 10.4,0.923 to 5.54,0.923 to 5.54,COc1cc(Nc2ncnc(Nc3cc(-c4ccccc4)nn3C)n2)cc(OC)c1OC [Compound 394]
> 8.78,> 8.78,0.78 to 4.68,> 8.78,0.78 to 4.68,> 8.78,4.68 to 6.83,0.78 to 4.68,COc1cc(Nc2ncnc(-n3c(Nc4cccc(C(N)=O)c4)nc4ccccc43)n2)cc(OC)c1OC [Compound 377]
1.04 to 6.26,> 11.7,1.04 to 6.26,< 1.04,> 11.7,< 1.04,1.04 to 6.26,< 1.04,COc1cc(Nc2ncnc(Nc3ccc(C)c(O)c3)n2)cc(OC)c1OC [Compound 83]
> 12.1,> 12.1,6.46 to 9.42,1.08 to 6.46,> 12.1,< 1.08,1.08 to 6.46,9.42 to 12.1,COc1cc(Nc2ncnc(Nc3ccccc3F)n2)cc(OC)c1OC [Compound 65]
1.02 to 6.12,8.92 to 11.5,< 1.02,< 1.02,> 11.5,< 1.02,< 1.02,< 1.02,COc1cc(Nc2ncnc(Nc3ccc4[nH]ccc4c3)n2)cc(OC)c1OC [Compound 928]
> 9.91,> 9.91,0.881 to 5.29,0.881 to 5.29,> 9.91,5.29 to 7.71,< 0.881,0.881 to 5.29,COc1cc(Nc2ncnc(Nc3cc(-c4ccc(Cl)cc4)n[nH]3)n2)cc(OC)c1OC [Compound 367]
> 10.4,8.1 to 10.4,< 0.925,0.925 to 5.55,8.1 to 10.4,< 0.925,< 0.925,0.925 to 5.55,COc1cc(Nc2ncnc(Nc3cccc(Br)c3)n2)cc(OC)c1OC [Compound 75]
> 9.31,> 9.31,0.827 to 4.96,> 9.31,> 9.31,7.24 to 9.31,> 9.31,< 0.827,COc1cc(Nc2ncnc(-n3c(Nc4ccccc4C)nc4ccccc43)n2)cc(OC)c1OC [Compound 384]
> 10.9,> 10.9,> 10.9,5.81 to 8.48,> 10.9,> 10.9,0.969 to 5.81,5.81 to 8.48,COc1cc(Nc2ncnc(-n3c(Cl)nc4ccccc43)n2)cc(OC)c1OC [Compound 378]
> 11.9,> 11.9,< 1.06,1.06 to 6.36,> 11.9,< 1.06,< 1.06,1.06 to 6.36,C#Cc1cccc(Nc2ncnc(Nc3cc(OC)c(OC)c(OC)c3)n2)c1 [Compound 74]
> 11.1,> 11.1,> 11.1,> 11.1,> 11.1,> 11.1,> 11.1,8.65 to 11.1,COc1cc(Nc2ncnc(Nc3cccc4cccnc34)n2)cc(OC)c1OC [Compound 97]
6.82 to 8.76,0.779 to 4.67,> 8.76,4.67 to 6.82,> 8.76,6.82 to 8.76,> 8.76,< 0.779,COc1cc(Nc2ncnc(-n3c(Nc4cccc(C(=O)O)c4)nc4ccccc43)n2)cc(OC)c1OC [Compound 390]
> 12,> 12,1.07 to 6.39,> 12,> 12,1.07 to 6.39,1.07 to 6.39,6.39 to 9.32,O=C1OCc2ccc(Nc3ncnc(Nc4cc(-c5ccco5)n[nH]4)n3)cc21 [Compound 364]
0.794 to 4.76,> 8.93,< 0.794,< 0.794,> 8.93,< 0.794,> 8.93,< 0.794,COc1cc(Nc2ncnc(N(c3ccc(Cl)cc3)c3nc4ccccc4[nH]3)n2)cc(OC)c1OC [Compound 374]
> 11.1,> 11.1,< 0.986,< 0.986,> 11.1,< 0.986,< 0.986,< 0.986,COc1cc(Nc2ncnc(Nc3ccc(F)c(Cl)c3)n2)cc(OC)c1OC [Compound 61]
1.02 to 6.1,> 11.4,1.02 to 6.1,< 1.02,> 11.4,1.02 to 6.1,1.02 to 6.1,1.02 to 6.1,COc1cc(Nc2ncnc(Nc3ccc4cn[nH]c4c3)n2)cc(OC)c1OC [Compound 70]
> 11.4,> 11.4,> 11.4,> 11.4,8.83 to 11.4,> 11.4,< 1.01,> 11.4,COc1cc(Nc2ncnc(NC(=O)Nc3ccccc3)n2)cc(OC)c1OC [Compound 852]
> 13,10.1 to 13,> 13,10.1 to 13,> 13,> 13,1.15 to 6.93,6.93 to 10.1,NC(=O)c1cccc(Nc2ncnc(-n3c(N)nc4ccccc43)n2)c1 [Compound 395]
1.01 to 6.04,> 11.3,1.01 to 6.04,1.01 to 6.04,> 11.3,< 1.01,6.04 to 8.81,< 1.01,COc1cc(Nc2ncnc(Nc3cc(C)c(O)cc3C)n2)cc(OC)c1OC [Compound 94]
> 12.4,> 12.4,1.1 to 6.62,> 12.4,> 12.4,6.62 to 9.66,1.1 to 6.62,6.62 to 9.66,NC(=O)c1ccc(Nc2ncnc(Nc3cc(-c4ccco4)n[nH]3)n2)cc1 [Compound 341]
1.15 to 6.93,6.93 to 10.1,1.15 to 6.93,> 13,> 13,6.93 to 10.1,< 1.15,1.15 to 6.93,NC(=O)c1ccc(Nc2ncnc(-n3c(N)nc4ccccc43)n2)cc1 [Compound 396]
